# PubChem BioAssay AID258 (DTP/NCI, 2004)
# Values joined by “and” are separate entries in the source; they are usually repeats but may differ in a detail not shown here. Identical values can stand only once. Inconclusive results and toxic doses are left out.
# Test system: CD2F1 mice, L1210 leukemia sc, survival T/C
# Experiment: NCI In Vivo Anticancer Drug Screen. Data for tumor model L1210 Leukemia (subcutaneous) in CD2F1 (CDF1) mice
# Conditions: endpoint: median survival time, higher = longer survival
# Method: The antitumor activity of compounds was measured in mice bearing transplantable tumors. Survival or tumor size were measured and the results are expressed as the measurement made in the treated group (T) divided by the measurement made in the vehicle treated control group (C). The tumor model used in this assay is L1210 Leukemia (subcutaneous) in CD2F1 (CDF1) mice
smiles,measurement,setting,value
CN(Cc1cnc2nc(N)nc(N)c2n1)c1c(Cl)cc(C(=O)NC(CCC(=O)O)C(=O)O)cc1Br (stereo not drawn),T/C,"dose: 17.0 mg/kg/injection, schedule: Q01DX Z (sc), vehicle: other",294 % of control and 318 % of control
same,T/C,"dose: 28.0 mg/kg/injection, schedule: Q01DX Z (sc), vehicle: other",356 % of control and 511 % of control
same,T/C,"dose: 46.0 mg/kg/injection, schedule: Q01DX Z (sc), vehicle: other",350 % of control
same,T/C,"dose: 47.0 mg/kg/injection, schedule: Q01DX Z (sc), vehicle: other",838 % of control
same,T/C,"dose: 47.1 mg/kg/injection, schedule: Q01DX Z (oral), vehicle: other",200 % of control
same,T/C,"dose: 76.0 mg/kg/injection, schedule: Q01DX Z (sc), vehicle: other",262 % of control
same,T/C,"dose: 78.0 mg/kg/injection, schedule: Q01DX Z (sc), vehicle: other",250 % of control
same,T/C,"dose: 78.1 mg/kg/injection, schedule: Q01DX Z (oral), vehicle: other",183 % of control
same,T/C,"dose: 126.0 mg/kg/injection, schedule: Q01DX Z (sc), vehicle: other",193 % of control
same,T/C,"dose: 130.0 mg/kg/injection, schedule: Q01DX Z (sc), vehicle: other",172 % of control
same,T/C,"dose: 130.1 mg/kg/injection, schedule: Q01DX Z (oral), vehicle: other",172 % of control
same,T/C,"dose: 216.0 mg/kg/injection, schedule: Q01DX Z (sc), vehicle: other",150 % of control
same,T/C,"dose: 216.1 mg/kg/injection, schedule: Q01DX Z (oral), vehicle: other",166 % of control
same,T/C,"dose: 360.0 mg/kg/injection, schedule: Q01DX Z (sc), vehicle: other",155 % of control
same,T/C,"dose: 360.1 mg/kg/injection, schedule: Q01DX Z (oral), vehicle: other",161 % of control
CS(=O)(=O)CS(=O)(=O)OCCCl,T/C,"dose: 1.5 mg/kg/injection, schedule: Q03HX024 (ip), vehicle: other",106 % of control
same,T/C,"dose: 3.1 mg/kg/injection, schedule: Q03HX008 (ip), vehicle: other",109 % of control
same,T/C,"dose: 3.1 mg/kg/injection, schedule: Q03HX024 (ip), vehicle: other",113 % of control
same,T/C,"dose: 6.2 mg/kg/injection, schedule: Q01DX005 (iv), vehicle: other",104 % of control
same,T/C,"dose: 6.2 mg/kg/injection, schedule: Q03HX008 (ip), vehicle: other",115 % of control
same,T/C,"dose: 6.2 mg/kg/injection, schedule: Q03HX024 (ip), vehicle: other",154 % of control
same,T/C,"dose: 11.8 mg/kg/injection, schedule: Q03HX008 (ip), vehicle: dextrose",187 % of control
same,T/C,"dose: 12.5 mg/kg/injection, schedule: Q01DX001 (iv), vehicle: other",106 % of control
same,T/C,"dose: 12.5 mg/kg/injection, schedule: Q01DX005 (iv), vehicle: other",114 % of control
same,T/C,"dose: 12.5 mg/kg/injection, schedule: Q01DX009 (ip), vehicle: other",122 % of control
same,T/C,"dose: 12.5 mg/kg/injection, schedule: Q01DX009 (ip), vehicle: saline with Tween-80",123 % of control
same,T/C,"dose: 12.5 mg/kg/injection, schedule: Q03HX008 (ip), vehicle: other",155 % of control
same,T/C,"dose: 12.5 mg/kg/injection, schedule: Q03HX024 (ip), vehicle: other",240 % of control
same,T/C,"dose: 12.5 mg/kg/injection, schedule: Q04DX003 (ip), vehicle: other",112 % of control
same,T/C,"dose: 16.8 mg/kg/injection, schedule: Q03HX008 (ip), vehicle: dextrose",217 % of control
same,T/C,"dose: 24.0 mg/kg/injection, schedule: Q01DX009 (ip), vehicle: dextrose",168 % of control
same,T/C,"dose: 24.0 mg/kg/injection, schedule: Q03HX008 (ip), vehicle: dextrose",600 % of control
same,T/C,"dose: 25.0 mg/kg/injection, schedule: Q01DX001 (ip), vehicle: other",111 % of control
same,T/C,"dose: 25.0 mg/kg/injection, schedule: Q01DX001 (iv), vehicle: other",119 % of control
same,T/C,"dose: 25.0 mg/kg/injection, schedule: Q01DX009 (ip), vehicle: other",176 % of control
same,T/C,"dose: 25.0 mg/kg/injection, schedule: Q01DX009 (ip), vehicle: saline with Tween-80",154 % of control
same,T/C,"dose: 25.0 mg/kg/injection, schedule: Q03HX008 (ip), vehicle: other",618 % of control
same,T/C,"dose: 25.0 mg/kg/injection, schedule: Q03HX024 (ip), vehicle: other",618 % of control
same,T/C,"dose: 25.0 mg/kg/injection, schedule: Q04DX003 (ip), vehicle: other",124 % of control
same,T/C,"dose: 34.3 mg/kg/injection, schedule: Q01DX005 (ip), vehicle: dextrose",183 % of control
same,T/C,"dose: 34.3 mg/kg/injection, schedule: Q01DX009 (ip), vehicle: dextrose",204 % of control
same,T/C,"dose: 34.3 mg/kg/injection, schedule: Q03HX008 (ip), vehicle: dextrose",600 % of control
same,T/C,"dose: 49.0 mg/kg/injection, schedule: Q01DX001 (ip), vehicle: dextrose",153 % of control
same,T/C,"dose: 49.0 mg/kg/injection, schedule: Q01DX002 (ip), vehicle: dextrose",180 % of control
same,T/C,"dose: 49.0 mg/kg/injection, schedule: Q01DX005 (ip), vehicle: dextrose",238 % of control
same,T/C,"dose: 49.0 mg/kg/injection, schedule: Q01DX009 (ip), vehicle: dextrose",270 % of control
same,T/C,"dose: 49.0 mg/kg/injection, schedule: Q03HX008 (ip), vehicle: dextrose",600 % of control
same,T/C,"dose: 50.0 mg/kg/injection, schedule: Q01DX001 (oral), vehicle: other",107 % of control
same,T/C,"dose: 50.0 mg/kg/injection, schedule: Q01DX005 (ip), vehicle: other",207 % of control
same,T/C,"dose: 50.0 mg/kg/injection, schedule: Q01DX005 (iv), vehicle: other",226 % of control
same,T/C,"dose: 50.0 mg/kg/injection, schedule: Q01DX009 (ip), vehicle: other",317 % of control
same,T/C,"dose: 50.0 mg/kg/injection, schedule: Q01DX009 (ip), vehicle: saline with Tween-80",242 % of control
same,T/C,"dose: 50.0 mg/kg/injection, schedule: Q01DX009 (oral), vehicle: other",168 % of control
same,T/C,"dose: 50.0 mg/kg/injection, schedule: Q03HX008 (ip), vehicle: other",103 % of control
same,T/C,"dose: 50.0 mg/kg/injection, schedule: Q04DX003 (ip), vehicle: other",209 % of control
same,T/C,"dose: 70.0 mg/kg/injection, schedule: Q01DX001 (ip), vehicle: dextrose",180 % of control
same,T/C,"dose: 70.0 mg/kg/injection, schedule: Q01DX002 (ip), vehicle: dextrose",290 % of control
same,T/C,"dose: 70.0 mg/kg/injection, schedule: Q01DX005 (ip), vehicle: dextrose",600 % of control
same,T/C,"dose: 70.0 mg/kg/injection, schedule: Q01DX009 (ip), vehicle: dextrose",600 % of control
same,T/C,"dose: 100.0 mg/kg/injection, schedule: Q01DX001 (ip), vehicle: dextrose",240 % of control
same,T/C,"dose: 100.0 mg/kg/injection, schedule: Q01DX001 (ip), vehicle: other",618 % of control
same,T/C,"dose: 100.0 mg/kg/injection, schedule: Q01DX001 (iv), vehicle: other",618 % of control
same,T/C,"dose: 100.0 mg/kg/injection, schedule: Q01DX002 (ip), vehicle: dextrose",600 % of control
same,T/C,"dose: 100.0 mg/kg/injection, schedule: Q01DX005 (ip), vehicle: dextrose",600 % of control
same,T/C,"dose: 100.0 mg/kg/injection, schedule: Q01DX005 (ip), vehicle: other",618 % of control
same,T/C,"dose: 100.0 mg/kg/injection, schedule: Q01DX005 (iv), vehicle: other",618 % of control
same,T/C,"dose: 100.0 mg/kg/injection, schedule: Q01DX009 (ip), vehicle: dextrose",600 % of control
same,T/C,"dose: 100.0 mg/kg/injection, schedule: Q01DX009 (ip), vehicle: other",216 % of control
same,T/C,"dose: 100.0 mg/kg/injection, schedule: Q01DX009 (oral), vehicle: other",240 % of control
same,T/C,"dose: 100.0 mg/kg/injection, schedule: Q04DX003 (ip), vehicle: other",353 % of control
same,T/C,"dose: 142.9 mg/kg/injection, schedule: Q01DX001 (ip), vehicle: dextrose",600 % of control
same,T/C,"dose: 142.9 mg/kg/injection, schedule: Q01DX002 (ip), vehicle: dextrose",600 % of control
same,T/C,"dose: 142.9 mg/kg/injection, schedule: Q01DX005 (ip), vehicle: dextrose",101 % of control
same,T/C,"dose: 200.0 mg/kg/injection, schedule: Q01DX001 (oral), vehicle: other",618 % of control
same,T/C,"dose: 200.0 mg/kg/injection, schedule: Q01DX009 (oral), vehicle: other",384 % of control
O=C1c2c(O)ccc(O)c2C(=O)c2c(NCCNCCO)ccc(NCCNCCO)c21,T/C,"dose: 0.5 mg/kg/injection, schedule: Q01DX009 (ip), vehicle: saline with Tween-80",105 % of control and 114 % of control and 116 % of control
same,T/C,"dose: 1.0 mg/kg/injection, schedule: Q01DX009 (ip), vehicle: saline with Tween-80",114 % of control
same,T/C,"dose: 2.0 mg/kg/injection, schedule: Q01DX009 (ip), vehicle: saline with Tween-80",168 % of control
